Test results reported in the CheMixHub viscosity set.

Test: xn = mol fraction of the nth substance listed

CCCCC(=O)O + CCCCCCCO
viscosity [mPa·s], 100 kPa
Settings	x1 = 0.0814	x1 = 0.1667	x1 = 0.2436	x1 = 0.3521	x1 = 0.4395	x1 = 0.5617	x1 = 0.6566	x1 = 0.7424	x1 = 0.8518	x1 = 0.9437
293.15 K	6.67	6.29	5.94	5.44	5.02	4.43	3.96	3.54	2.99	2.53
303.15 K	4.79	4.54	4.31	3.98	3.7	3.31	3	2.72	2.36	2.06
313.15 K	3.52	3.32	3.14	2.9	2.72	2.46	2.27	2.09	1.87	1.68
323.15 K	2.66	2.53	2.42	2.26	2.13	1.96	1.83	1.71	1.56	1.43

CCCCC(=O)O + CCCCCCO
viscosity [mPa·s], 100 kPa
Settings	x1 = 0.0922	x1 = 0.1786	x1 = 0.2643	x1 = 0.3791	x1 = 0.4723	x1 = 0.5917	x1 = 0.6782	x1 = 0.7647	x1 = 0.8655	x1 = 0.9463
293.15 K	5.13	4.89	4.64	4.3	4	3.61	3.33	3.04	2.7	2.43
303.15 K	3.78	3.63	3.47	3.24	3.04	2.79	2.6	2.4	2.17	1.99
313.15 K	2.84	2.74	2.63	2.49	2.36	2.18	2.06	1.93	1.78	1.65
323.15 K	2.18	2.11	2.03	1.93	1.85	1.74	1.66	1.57	1.48	1.4

NCCNCCN + CCCCCCO
viscosity [mPa·s], 101 kPa
Settings	298.15 K	303.15 K	308.15 K
x1 = 0.0573	5.116	4.247	3.626
x1 = 0.1064	5.533	4.59	3.929
x1 = 0.1567	5.928	4.857	4.134
x1 = 0.2089	6.207	5.066	4.274
x1 = 0.2683	6.373	5.168	4.367
x1 = 0.2986	6.429	5.206	4.393
x1 = 0.4054	6.424	5.195	4.362
x1 = 0.5082	6.261	5.038	4.22
x1 = 0.6024	5.991	4.851	4.058
x1 = 0.7078	5.825	4.666	3.925
x1 = 0.7906	5.648	4.568	3.857
x1 = 0.8419	5.594	4.524	3.828
x1 = 0.9102	5.589	4.493	3.81
x1 = 0.9579	5.579	4.478	3.801

CCCCC(=O)O + CCCCCO
viscosity [mPa·s], 100 kPa
Settings	x1 = 0.0805	x1 = 0.1593	x1 = 0.2392	x1 = 0.3508	x1 = 0.4406	x1 = 0.5609	x1 = 0.6497	x1 = 0.7392	x1 = 0.8517	x1 = 0.9395
293.15 K	3.93	3.83	3.71	3.54	3.38	3.15	2.98	2.79	2.56	2.37
303.15 K	2.98	2.92	2.85	2.74	2.63	2.48	2.36	2.24	2.08	1.96
313.15 K	2.29	2.25	2.21	2.14	2.07	1.97	1.9	1.82	1.71	1.63
323.15 K	1.79	1.76	1.73	1.68	1.64	1.58	1.54	1.49	1.43	1.38

Oc1cccc2ccccc12 + CCCCCOC(C)=O
Settings	viscosity [mPa·s]
298.15 K, 101 kPa, x2 = 0.5	1.549

Oc1cccc(O)c1 + CCCCO
Settings	viscosity [mPa·s]
293.15 K, 101 kPa, x1 = 0.28	19.75

Oc1cccc2ccccc12 + CCCCO
viscosity [mPa·s], 101 kPa
Settings	x1 = 0.04	x1 = 0.08	x1 = 0.12	x1 = 0.16	x1 = 0.2
293.15 K	3.278	3.6	3.953	4.407	4.888
303.15 K	2.489	2.719	2.974	3.265	3.61
313.15 K	1.952	2.106	2.289	2.512	2.745
323.15 K	1.56	1.685	1.816	1.966	2.14

Oc1cccc(O)c1O + CCCC[N+](CCCC)(CCCC)CCCC.[Br-]
101.3 kPa, x2 = 0.5
Settings	viscosity [mPa·s]
293.15 K	30000
298.15 K	18500
303.15 K	11000
308.15 K	6000
313.15 K	3250
318.15 K	1850
323.15 K	1200

NCCNCCN + CCCCn1cc[n+](C)c1.F[B-](F)(F)F
Settings	viscosity [mPa·s]
313.15 K, 101.33 kPa, x2 = 0.8948	46.45

CCCCOCCOCCOCCCC + CCCN
298.15 K, 101 kPa
Settings	viscosity [mPa·s]
x1 = 0.0095	0.375
x1 = 0.0288	0.417
x1 = 0.0455	0.45
x1 = 0.0845	0.529
x1 = 0.1266	0.622
x1 = 0.1754	0.719
x1 = 0.2172	0.806
x1 = 0.2531	0.87
x1 = 0.266	0.904
x1 = 0.3172	0.994
x1 = 0.3559	1.055
x1 = 0.3977	1.129
x1 = 0.4621	1.24
x1 = 0.516	1.33
x1 = 0.5979	1.489
x1 = 0.6482	1.579
x1 = 0.6986	1.689
x1 = 0.7471	1.774
x1 = 0.7956	1.869
x1 = 0.8618	2.01
x1 = 0.9261	2.093
x1 = 0.9641	2.143

CCCCO + CCCO
Settings	viscosity [mPa·s]
293.15 K, 101.33 kPa, x2 = 0.152	2.84
293.15 K, 101.33 kPa, x2 = 0.3302	2.715
293.15 K, 101.33 kPa, x2 = 0.5008	2.566
293.15 K, 101.33 kPa, x2 = 0.616	2.474
293.15 K, 101.33 kPa, x2 = 0.7172	2.41
293.15 K, 101.33 kPa, x2 = 0.8933	2.282
298.15 K, 101 kPa, x1 = 0.1009	2.024
298.15 K, 101 kPa, x1 = 0.2	2.082
298.15 K, 101 kPa, x1 = 0.3013	2.135
298.15 K, 101 kPa, x1 = 0.4026	2.194
298.15 K, 101 kPa, x1 = 0.5009	2.254
298.15 K, 101 kPa, x1 = 0.6055	2.319
298.15 K, 101 kPa, x1 = 0.6279	2.326
298.15 K, 101 kPa, x1 = 0.7983	2.432
298.15 K, 101 kPa, x1 = 0.8992	2.494
298.15 K, 101.33 kPa, x2 = 0.1147	2.507
298.15 K, 101.33 kPa, x2 = 0.3211	2.378
298.15 K, 101.33 kPa, x2 = 0.4966	2.261
298.15 K, 101.33 kPa, x2 = 0.6315	2.172
298.15 K, 101.33 kPa, x2 = 0.7297	2.118
298.15 K, 101.33 kPa, x2 = 0.9322	2.001

CCCCOCCOCCOCCCC + CCCO
298.15 K, 101.33 kPa
Settings	viscosity [mPa·s]
x1 = 0.0034	1.944
x1 = 0.0097	1.937
x1 = 0.0158	1.93
x1 = 0.0252	1.917
x1 = 0.0426	1.895
x1 = 0.0734	1.866
x1 = 0.0979	1.849
x1 = 0.1509	1.832
x1 = 0.1955	1.824
x1 = 0.2419	1.827
x1 = 0.2937	1.837
x1 = 0.3481	1.851
x1 = 0.3959	1.868
x1 = 0.4376	1.884
x1 = 0.4827	1.901
x1 = 0.54	1.925
x1 = 0.5983	1.949
x1 = 0.6416	1.968
x1 = 0.6954	1.99
x1 = 0.7531	2.016
x1 = 0.8095	2.039
x1 = 0.8656	2.061
x1 = 0.9083	2.079
x1 = 0.9447	2.096
x1 = 0.9742	2.111

Oc1cccc(O)c1 + CCCO
viscosity [mPa·s], 101 kPa
Settings	293.15 K	303.15 K	323.15 K
x1 = 0.07	3.605	–	1.675
x1 = 0.28	–	12.05	–

Oc1cccc2ccccc12 + CCCO
viscosity [mPa·s], 101 kPa
Settings	x1 = 0.04	x1 = 0.08	x1 = 0.12	x1 = 0.16	x1 = 0.2
293.15 K	2.564	2.904	3.349	3.844	4.423
303.15 K	1.999	2.245	2.528	2.863	3.26
313.15 K	1.592	1.696	1.867	2.114	2.396
323.15 K	1.293	1.403	1.567	1.748	1.954

NCCNCCN + CCN(CC)CCO
viscosity [mPa·s], 101 kPa
Settings	x1 = 0.1	x1 = 0.1999	x1 = 0.2999	x1 = 0.3997	x1 = 0.4997	x1 = 0.5997	x1 = 0.6996	x1 = 0.7992	x1 = 0.8989
293.15 K	6.36	7.21	8	8.32	8.45	8.11	7.8	7.34	7.02
303.15 K	4.38	4.95	5.25	5.5	5.64	5.52	5.31	5.08	4.89
313.15 K	3.14	3.46	3.72	3.92	4.02	3.94	3.8	3.62	3.52
323.15 K	2.28	2.54	2.72	2.9	3	2.95	2.88	2.77	2.69

NCCNCCN + CCO
viscosity [mPa·s], 100 kPa
Settings	x2 = 0.1023	x2 = 0.2001	x2 = 0.3566	x2 = 0.492	x2 = 0.6001	x2 = 0.6952	x2 = 0.7703	x2 = 0.8378	x2 = 0.897	x2 = 0.9523
298.15 K	5.92	5.97	5.63	5.02	4.36	3.7	3.08	2.51	1.97	1.49
303.15 K	4.85	4.98	4.76	4.25	3.74	3.17	2.69	2.2	1.76	1.34
308.15 K	4.21	4.33	4.13	3.69	3.24	2.79	2.4	1.99	1.62	1.24

Oc1cccc(O)c1 + CCO
Settings	viscosity [mPa·s]
323.15 K, 101 kPa, x1 = 0.07	1.265

Oc1cccc2ccccc12 + CCO
viscosity [mPa·s], 101 kPa
Settings	x1 = 0.03	x1 = 0.06	x1 = 0.09	x1 = 0.12	x1 = 0.15
293.15 K	1.425	1.638	1.885	2.205	2.538
303.15 K	1.158	1.337	1.523	1.733	1.968
313.15 K	0.964	1.103	1.251	1.417	1.6
323.15 K	0.795	0.91	1.048	1.186	1.339

CCCCOCCOCCOCCCC + CCOC(=O)OCC
viscosity [mPa·s], 101.3 kPa
Settings	298.15 K	308.15 K	318.15 K
x1 = 0.0131	0.771	0.675	0.587
x1 = 0.0338	0.806	0.699	0.603
x1 = 0.0756	0.864	0.751	0.638
x1 = 0.1533	0.976	0.842	0.707
x1 = 0.2472	1.118	0.949	0.792
x1 = 0.3392	1.245	1.056	0.871
x1 = 0.4137	1.359	1.14	0.94
x1 = 0.425	1.379	1.153	0.95
x1 = 0.4831	1.457	1.22	1.002
x1 = 0.6085	1.63	1.357	1.105
x1 = 0.7927	1.892	1.556	1.255
x1 = 0.8959	2.018	1.656	1.328
x1 = 0.954	2.116	1.734	1.383

Oc1cccc(O)c1O + CC[N+](CC)(CC)CC.[Br-]
101.3 kPa, x2 = 0.333
Settings	viscosity [mPa·s]
293.15 K	46000
298.15 K	32000
303.15 K	23000
308.15 K	16000
313.15 K	10500
318.15 K	7500
323.15 K	5500
